US20190048052A1, “ANTI-MICROBIAL PEPTIDES AND COATINGS” (Board of Regents of the University of Nebraska, priority 2016, published 2019)
Converted amounts (≈) assume the structure as drawn. Read-outs that look alike come from different tables or passages of the source. Residues, ends and D or L forms follow the SMILES beside them.

Experiments:
S. aureus USA300 [1] = format: cell-based, Staphylococcus aureus; settings: for loss in activity compared to the WT: MRSA USA300
Procedure: (§1) The antimicrobial activity of peptides was evaluated using a standard broth microdilution protocol. In brief, exponential phase bacteria at 10^6 CFU were incubated with serially diluted peptides overnight for ˜20 hours at 37° C. The plates were read on a ChroMate® 4300 Microplate Reader at 630 nm (GMI, Ramsey, Minn.).

E. coli ATCC 25922 = format: cell-based, Escherichia coli; settings: ATCC 25922, 20 h
Procedure: as §1

human red blood cells = experiment: Hemolytic ability (Example 3); format: cell-based; settings: concentration that causes 50% hemolysis
Procedure: Hemolytic analysis of selected peptides was performed using an established protocol. Briefly, human blood cells (UNMC Blood Bank) were washed three times with phosphate buffer saline (PBS) and diluted to a 2% solution. After peptide treatment, incubation at 37° C. for one hour, and centrifugation at 13,000 rpm, aliquots of the supernatant were transferred to a fresh 96-well microplate. To assess peptide cytotoxicity, the amount of hemoglobin released was measured at 545 nm. The percent lysis was calculated by assuming 100% release when human blood cells were treated with 1% TRITON™ X-100, and 0% release when incubated with PBS buffer.

S. aureus USA300 [2] = format: cell-based, Staphylococcus aureus
Procedure: Two types of experiments were conducted to evaluate the anti-biofilm activity of these peptides against S. aureus USA300 grown under a static condition for 24 hours to form established biofilms in presence of tryptic soy broth (TSB). The experiment was set up using a flat bottom, 96-well, polystyrene microtiter plates (Corning, COSTAR). In short, S. aureus USA300 (10^5 CFU/mL) in fresh TSB media was made from an exponentially growing culture. 200 μL of this bacterial culture was added to each well of the microtiter plates. The plates are then incubated at 37° C. for 24 hours to allow biofilm formation. Media was then carefully removed followed by washing with sterile 1×PBS to remove any unattached bacteria. Solution containing μL of 10× peptide solution and 180 μL of fresh TSB were added. The plates were again incubated at 37° C. for another 24 hours. To measure the extent of biofilm disruption by the peptides as a function of biofilm reduction, crystal violet staining was performed. Media was pipetted out and the wells were carefully washed with 200 μL of PBS to remove the loosely attached cells. Subsequently, 200 μL of 99% methanol was added for fixation and the plates were allowed to sit for 15 minutes. The plates were finally aspirated and dried. Lastly, staining was done with 200 μL of 1% crystal violet in water for 5 minutes. Excess stain was gently rinsed off with tap water, and plates were air-dried. Further, stains were solubilized in 200 μL of 33% glacial acetic acid followed by colorimetric measurement at 600 nm on a Chromate® microtiter plate reader. The amounts of biofilm growth with and without compound treatments were calculated.
In addition, live cell contents of the peptide acted biofilms was estimated by XTT [2,3-bis(2-methyloxy-4-nitro-5-sulfophenyl)-2H-tertazolium-5-carboxanilide]assay by following the manufacturer's instructions with modifications. A 10% XTT solution in TSB media was added to each well and the plates were again incubated for 2 hours at 37° C. Absorbance at 450 nm (only media with XTT containing wells served as the blank) was obtained using Chromate® microtiter plate reader. Percentage of biofilm reduction for the peptide was plotted assuming 100% biofilm growth is achieved on the bacterial wells without peptide treatment.

E. coli K12 = format: cell-based, Escherichia coli; settings: K12
Procedure: (§2) The bacterial strains used here included Gram-positive bacteria Staphylococcus aureus USA300 LAC, Staphylococcus epidermidis 1457, Bacillus subtilis 168, and Gram-negative Escherichia coli K12. Clinical strains of S. aureus, including Mu50, UAMS-1 and Newman, were also evaluated.
(§3) The antimicrobial activity of peptides was evaluated using a standard broth microdilution protocol (Wang, G. (2008) J. Biol. Chem., 283:32637-32643). In brief, exponential phase bacteria at 10^6 CFU were incubated with serially diluted peptides overnight for ˜20 hours at 37° C. The plates were read on a ChroMate® 4300 Microplate Reader at 630 nm (GMI, Ramsey, Minn.). […] In addition, the effects of human serum (up to 10%), pH (6.8, 7.4 and 8.0) and 150 mM sodium chloride (NaCl) on MICs against S. aureus USA300 were also evaluated (Mishra et al. (2015) RSC Advances 5:59758-59769).

S. epidermidis 1457 = format: cell-based, Staphylococcus epidermidis
Procedure: as §2, §3

B. subtilis 168 = format: cell-based, Bacillus subtilis
Procedure: as §2, §3

S. aureus USA300 [3] = format: cell-based, Staphylococcus aureus; remark: listed apart in the source
Procedure: as §2, §3

S. aureus USA300 [4] = format: cell-based, Staphylococcus aureus; settings: USA300
Procedure: The minimal bactericidal concentration (MBC) was determined by plating 50 μl of the content in the clear wells of the above MIC assays. MBC was determined on the petri dishes without bacterial colony formation after overnight growth (Wang et al. (2012) Biochemistry 51:653-664).

S. aureus USA300 [5] = experiment: Propidium iodide membrane permeation; format: cell-based, Staphylococcus aureus
Procedure: Fluorescence spectroscopy was also used to follow bacterial killing. In brief, a serially diluted 10× peptide (10 μL) was made in 96-well coming COSTAR microtiter plates. Propidium iodide (2 μL) was added at 50 μM to each well which was finally incubated with S. aureus USA300 bacteria (88 μL at a final OD600 ˜0.1) with continuous shaking at 100 rpm, 37° C. in a FLUOstar® Omega (BMG LABTECH Inc, NC) microplate reader. The plates were read every 5 minutes for a total duration of 2 hours with excitation and emission wavelengths at 584 nm and 620 nm respectively. Plots were made using averaged readings from duplicated experiments after subtraction of the media control.

| Structure (SMILES) | loss in activity compared to the WT (S. aureus USA300 [1]) | S. aureus (MIC) (S. aureus USA300 [1]; S. aureus USA300) [µM] | E. coli (MIC) (E. coli ATCC 25922) [µM] | HL50 (human red blood cells) [µM] | further results |
| --- | --- | --- | --- | --- | --- |
| CC[C@H](C)[C@H](NC(=O)[C@H](CCCNC(=N)N)NC(=O)[C@H](CCCNC(=N)N)NC(=O)[C@H](CC(C)C)NC(=O)[C@H](Cc1c[nH]c2ccccc12)NC(=O)[C@H](Cc1c[nH]c2ccccc12)NC(=O)[C@@H](N)CCCNC(=N)N)C(=O)N[C@@H](Cc1c[nH]c2ccccc12)C(N)=O [Peptide W1R, RWWLRRIW] (H-RWWLRRIW-NH2; N-terminus assumed) | four-fold | 12.5 | 25 | >200 | killing in preformed biofilms (XTT) (S. aureus USA300 [2]; 25 μM): neither W1R nor W3R was able to kill |
| CC[C@H](C)[C@H](NC(=O)[C@H](CCCNC(=N)N)NC(=O)[C@H](CCCNC(=N)N)NC(=O)[C@H](CC(C)C)NC(=O)[C@H](Cc1c[nH]c2ccccc12)NC(=O)[C@H](CCCNC(=N)N)NC(=O)[C@@H](N)Cc1c[nH]c2ccccc12)C(=O)N[C@@H](Cc1c[nH]c2ccccc12)C(N)=O [Peptide W2R, WRWLRRIW] (H-WRWLRRIW-NH2; N-terminus assumed) |  |  | 25 | 100 | S. aureus (MIC) (S. aureus USA300 [1]; USA300, 20 h): 6.2 µM; killing in preformed biofilms (XTT) (S. aureus USA300 [2]; 12.5 μM): 80% |
| CC[C@H](C)[C@H](NC(=O)[C@H](CCCNC(=N)N)NC(=O)[C@H](CCCNC(=N)N)NC(=O)[C@H](CC(C)C)NC(=O)[C@H](CCCNC(=N)N)NC(=O)[C@H](Cc1c[nH]c2ccccc12)NC(=O)[C@@H](N)Cc1c[nH]c2ccccc12)C(=O)N[C@@H](Cc1c[nH]c2ccccc12)C(N)=O [Peptide W3R, WWRLRRIW] (H-WWRLRRIW-NH2; N-terminus assumed) | four-fold | 12.5 | 25 | >200 | killing in preformed biofilms (XTT) (S. aureus USA300 [2]; 25 μM): neither W1R nor W3R was able to kill |
| CC[C@H](C)[C@H](NC(=O)[C@H](CCCNC(=N)N)NC(=O)[C@H](CCCNC(=N)N)NC(=O)[C@H](CC(C)C)NC(=O)[C@H](Cc1c[nH]c2ccccc12)NC(=O)[C@H](Cc1c[nH]c2ccccc12)NC(=O)[C@@H](N)Cc1c[nH]c2ccccc12)C(=O)N[C@@H](CCCNC(=N)N)C(N)=O [Peptide W8R, WWWLRRIR] (H-WWWLRRIR-NH2; N-terminus assumed) | four-fold | 12.5 | 25 | >200 | killing in preformed biofilms (XTT) (S. aureus USA300 [2]; 12.5 μM): 20% |
| CC[C@H](C)[C@H](NC(=O)[C@H](CCCNC(=N)N)NC(=O)[C@H](CO)NC(=O)[C@H](CC(C)C)NC(=O)[C@H](Cc1c[nH]c2ccccc12)NC(=O)[C@H](Cc1c[nH]c2ccccc12)NC(=O)[C@@H](N)Cc1c[nH]c2ccccc12)C(=O)N[C@@H](Cc1c[nH]c2ccccc12)C(N)=O [TetraF2W, WWWLSRIW] (H-WWWLSRIW-NH2; N-terminus and C-terminus assumed) |  |  |  |  | MIC E. coli K12 (E. coli K12): >100 µM; MIC S. epidermidis 1457 (S. epidermidis 1457): >50 µM; MIC B. subtilis 168 (B. subtilis 168): 6.2 µM (≈ 7.64 µg/mL); fold more potent than temporin-SHf (anti-MRSA) (S. aureus USA300 [3]; S. aureus USA300): 4-8 fold; MIC S. aureus USA300 (S. aureus USA300 [3]; USA300): 3.1 to 6.2 µM; MBC S. aureus USA300 (S. aureus USA300 [4]): 6.2 µM (≈ 7.64 µg/mL) |
| CCCCCCCCCC(=O)N[C@@H](Cc1c[nH]c2ccccc12)C(=O)N[C@H](CC(N)=O)C(=O)N[C@@H](CC(=O)O)C(=O)N[C@@H]1C(=O)NCC(=O)N[C@@H](CCCN)C(=O)N[C@@H](CC(=O)O)C(=O)N[C@H](C)C(=O)N[C@@H](CC(=O)O)C(=O)NCC(=O)N[C@H](CO)C(=O)N[C@@H]([C@H](C)CC(=O)O)C(=O)N[C@@H](CC(=O)c2ccccc2N)C(=O)O[C@@H]1C [daptomycin, reference compound] |  |  |  |  | propidium iodide fluorescence change after treatment (S. aureus USA300 [5]): rapid increase in fluorescence |
| CN[C@H](CC(C)C)C(=O)N[C@H]1C(=O)N[C@@H](CC(N)=O)C(=O)N[C@H]2C(=O)N[C@H]3C(=O)N[C@H](C(=O)N[C@H](C(=O)O)c4cc(O)cc(O)c4-c4cc3ccc4O)[C@H](O)c3ccc(c(Cl)c3)Oc3cc2cc(c3O[C@@H]2O[C@H](CO)[C@@H](O)[C@H](O)[C@H]2O[C@H]2C[C@](C)(N)[C@H](O)[C@H](C)O2)Oc2ccc(cc2Cl)[C@H]1O [vancomycin, reference compound] |  |  |  |  | propidium iodide fluorescence change after treatment (S. aureus USA300 [5]): no increase in fluorescence |
